Assays:
Assay type in all cases: cell-based, Pseudomonas aeruginosa
PAO1-L mCTX::PpqsA-lux = assay: PpqsA-lux bioreporter assay, strain PAO1-L; settings: for IC50 / activity at 10 µM: Pseudomonas aeruginosa; for IC50: PAO1, read-out: IC50 PAO1-L; for activity at 10 µM: PAO1, read-out: Remaining Activity % (RA%) at 10 μM PAO1-L; for IC50 PAO1-L: n = 9, NA = not active at 10 μM
Procedure: In silico virtual screening was performed on the PqsR ligand binding domain (LBD) crystal structure [PDB: 4JVI; (Ilangovan et al., [2013])] using the University of Nottingham Managed Chemical Compound Collection (MCCC) containing 85,061 compounds. Molecular docking was performed using both the OpenEye docking (OpenEye Scientific Software Inc. (Hawkins et al., [2007]) and Schrödinger Suite for molecular modeling (Friesner et al., [2004]; Halgren et al., [2004]). A cut off value of the docking score function was set to -9.0 and the resulting high scoring compounds were further examined (Friesner et al., [2004]; Halgren et al., [2004]). This gave a library of around 500 diverse molecules that were evaluated using in vitro screening in a P. aeruginosa PAO1-L mCTX::PPqsA-lux reporter assay (Diggle et al., [2011]).
(§1) To inform the structural variation of 7, crystal structures with the endogenous ligand [4-hydroxy-2-heptylquinoline (NHQ)] and the inhibitor M64 were used (Ilangovan et al., [2013]; Kitao et al., [2018]). The PqsR LBD is dominated by lipophilic interactions, therefore the current SAR exploration mainly focused on varying the aromatic tail substituents and examining the effect of 8-position substitution. The rationale for these modifications was primarily based on molecular docking studies that provided insights into the mode of binding of 7 and approaches intended to improve potency. The substituent at the para- position of the aromatic ring appeared to be crucial for biological activity due to the vital π-π stacking interaction of this group with Tyr^258. […] These strains emit light upon activation of PqsR by the endogenous production of these signal molecules. […] The results of the SAR in this assay highlight the importance of testing any prospective anti-virulence strategy on multiple genetically distinct P. aeruginosa strains as a means to reduce the chance of failure at both pre-clinical and clinical stages (Freschi et al., [2015]).
(§2) PAO1-L Wild type PAO1, Lausanne subline. B.
PAO1-L mCTX::PpqsA- PAO1-L with chromosomal mini-CTX::PpqsA-lux (Soukarieh lux insertion; TcR et al., 2018) […]
(§3) mini-CTX::PpqsA-lux R6K-based mini-CTX suicide plasmid for the (Diggle et chromosomal insertion of a PpqsA-lux al., 2007) transcriptional reporter fusion; TcR
(§4) Biosensor reporter assay:
(§5) Strains PA14 mCTX::PpqsA-lux and PAO1-L mCTX::PpqsA-lux were constructed using plasmid mini-CTX::PpqsA-lux as previously described (Diggle et al., 2007) and the assay was performed according to published procedures (Fletcher et al., 2007). For screening, the compounds were tested at 10 µM concentration which was prepared from 10 mM stock in DMSO. […]

PA14 mCTX::PpqsA-lux = assay: PpqsA-lux bioreporter assay, strain PA14; settings: for IC50: Pseudomonas aeruginosa, PA14, read-out: IC50 PA14; for IC50 PA14: PpqsA-lux bioreporter, n = 9, NA = not active at 10 μM
Description: as §1, with “[2015]). […]” for “[2015]).”
(§6) PA14 mCTX::PpqsA-lux PA14 with chromosomal mini-CTX::PpqsA-lux (Soukarieh insertion; TcR et al., 2018) […]
as §3, §4, §5

PA14 = assay: Pyocyanin quantification, PA14; settings: PA14, compound at 3 x IC50, 16 h, compared with the control
Description: Pyocyanin is an important virulence factor for P. aeruginosa infections and in particular respiratory and urinary tract infections. Pyocyanin is a redox-active phenazine the production of which is regulated via PqsR and PqsE (Hall et al., [2016]; Rampioni et al., [2016]; Higgins et al., [2018]). Therefore, pyocyanin production serves as an indirect readout of the activity of the pqs QS system. […] Compound 40 reduced pyocyanin production by over 80% in both strains in agreement with bioreporter assay results.
Figure 4 Pyocyanin production by Pseudomonas aeruginosa after treatment with pqs inhibitors 8, 14, 23, 34, 25, 26, and 40. Quantification of pyocyanin production after inhibitor treatment at 3 × IC50 for both PAO1-L and PA14. The graph represents the average of three independent experiments carried out in triplicate (n = 9).
as §2
PAO1-L mCTX::PpqsA- PAO1-L with chromosomal mini-CTX::PpqsA-lux (Soukarieh lux insertion; TcR et al., 2018)
PA14 Wild type UCBPP-PA14 (Rahme et
as §6
Pyocyanin quantification: […]
Pyocyanin pigment was extracted into chloroform by mixing 7.5 mL of supernatant with 4.5 mL of chloroform. Pyocyanin w as further extracted into 1.5 mL of 0.2 M HCL which gave a pink/red solution and the absorbance was measured at 520 nm.

Compound | IC50 (PAO1-L mCTX::PpqsA-lux) | IC50 (PA14 mCTX::PpqsA-lux) | IC50 PA14 (PA14 mCTX::PpqsA-lux) | also measured
O=C(CSc1nc2cc([N+](=O)[O-])ccc2[nH]1)Nc1ccc(Oc2ccccc2)cc1 [Compound M64, reference compound] | 320 ± 140 nM | 1220 ± 340 nM |  | 
Cn1c2ccc(Br)cc2c2nnc(SCC(=O)Nc3ccc(OC(F)(F)F)cc3)nc21 [Compound 22, 2-((8-Bromo-5-methyl-5H-[1,2,4]triazino[5,6-b]indol-3-yl)thio)-N-(4-(trifluoromethoxy)phenyl)acetamide] |  |  |  | activity at 10 µM (PAO1-L mCTX::PpqsA-lux): 23%
Cn1c2ccccc2c2nnc(SCC(=O)Nc3ccc(Oc4ncccn4)cc3)nc21 [Compound 28, 2-((5-Methyl-5H-[1,2,4]triazino[5,6-b]indol-3-yl)thio)-N-(4-(pyrimidin-2yloxy)phenyl)acetamide] | 1040 ± 120 nM | 1330 ± 330 nM |  | 
Cn1c2ccccc2c2nnc(SCC(=O)Nc3ccc(Br)cc3)nc21 [Compound 26, N-(4-Bromophenyl)-2-((5-methyl-5H-[1,2,4]triazino[5,6-b]indol-3-yl)thio)acetamide] | 1710 ± 260 nM | 1350 ± 190 nM |  | 
Cn1c2ccc(Br)cc2c2nnc(SCC(=O)Nc3ccc(Cl)c(Cl)c3)nc21 [Compound 14, 2-((8-Bromo-5-methyl-5H-[1,2,4]triazino[5,6-b]indol-3-yl)thio)-N-(3,4-dichlorophenyl)acetamide] | 3100 ± 520 nM | 7580 ± 820 nM |  | 
Cn1c2ccc(Br)cc2c2nnc(SCC(=O)Nc3ccc(F)cc3)nc21 [Compound 16, 2-((8-Bromo-5-methyl-5H-[1,2,4]triazino[5,6-b]indol-3-yl)thio)-N-(4-fluorophenyl)acetamide] | 1360 ± 210 nM |  |  | 
Cc1ccc(NC(=O)CSc2nnc3c4ccccc4n(C)c3n2)cc1 [Compound 17, 2-((5-Methyl-5H-[1,2,4]triazino[5,6-b]indol-3-yl)thio)-N-(p-tolyl)acetamide] | 1860 ± 10 nM |  |  | 
Cn1c2ccc(Br)cc2c2nnc(SCC(=O)Nc3ccc(Br)cc3)nc21 [Compound 27, 2-((8-Bromo-5-methyl-5H-[1,2,4]triazino[5,6-b]indol-3-yl)thio)-N-(4-bromophenyl)acetamide] | 23000 ± 9000 nM |  | inactivity | 
Cn1c2ccc(Br)cc2c2nnc(SCC(=O)Nc3cccc(Cl)c3)nc21 [Compound 12, 2-((8-Bromo-5-methyl-5H-[1,2,4]triazino[5,6-b]indol-3-yl)thio)-N-(3-chlorophenyl)acetamide] |  |  | inactive | activity at 10 µM (PAO1-L mCTX::PpqsA-lux): 43%
Cc1ccc(NC(=O)CSc2nnc3c4cc(Br)ccc4n(C)c3n2)cc1 [Compound 18, 2-((8-Bromo-5-methyl-5H-[1,2,4]triazino[5,6-b]indol-3-yl)thio)-N-(p-tolyl)acetamide] |  |  |  | activity at 10 µM (PAO1-L mCTX::PpqsA-lux): 32%
Cn1c2ccccc2c2nnc(SCC(=O)Nc3ccc(Cl)cc3)nc21 [Compound 7, N-(4-Chlorophenyl)-2-((5-methyl-5H-[1,2,4]triazino[5,6-b]indol-3-yl)thio)acetamide] | 980 ± 20 nM |  | inactive | 
Cn1c2ccccc2c2nnc(SCC(=O)Nc3ccccc3Cl)nc21 [Compound 38, N-(2-Chlorophenyl)-2-((5-methyl-5H-[1,2,4]triazino[5,6-b]indol-3-yl)thio)acetamide] |  |  | inactive | IC50 PAO1-L (PAO1-L mCTX::PpqsA-lux; PpqsA-lux bioreporter): inactive
Cn1c2ccc(Br)cc2c2nnc(SCC(=O)Nc3ccc(Oc4ccccc4)cc3)nc21 [Compound 25, 2-((8-Bromo-5-methyl-5H-[1,2,4]triazino[5,6-b]indol-3-yl)thio)-N-(4-phenoxyphenyl)acetamide] | 4360 ± 420 nM |  |  | 
Cn1c2ccc(Br)cc2c2nnc(SCC(=O)Nc3ccc(Cl)cc3)nc21 [Compound 8, 2-((8-Bromo-5-methyl-5H-[1,2,4]triazino[5,6-b]indol-3-yl)thio)-N-(4-chlorophenyl)acetamide] | 1990 ± 230 nM | 1600 ± 160 nM |  | 
Cn1c2ccccc2c2nnc(SCC(=O)Nc3ccc(OC(F)(F)F)cc3)nc21 [Compound 21, 2-((5-Methyl-5H-[1,2,4]triazino[5,6-b]indol-3-yl)thio)-N-(4(trifluoromethoxy)phenyl)acetamide] |  |  |  | activity at 10 µM (PAO1-L mCTX::PpqsA-lux): 29%
Cn1c2ccccc2c2nnc(SCC(=O)Nc3ccc(CC#N)cc3)nc21 [Compound 23, N-(4-(Cyanomethyl)phenyl)-2-((5-methyl-5H-[1,2,4]triazino[5,6-b]indol-3-yl)thio)acetamide] | 620 ± 100 nM | 2000 ± 170 nM |  | inhibition of pyocyanin production (PA14): most potent inhibitor
Cn1c2ccc(Br)cc2c2nnc(SCC(=O)Nc3ccccc3Cl)nc21 [Compound 39, 2-((8-Bromo-5-methyl-5H-[1,2,4]triazino[5,6-b]indol-3-yl)thio)-N-(2-chlorophenyl)acetamide] |  |  | inactive | IC50 PAO1-L (PAO1-L mCTX::PpqsA-lux; PpqsA-lux bioreporter): inactive
Cn1c2ccccc2c2nnc(SCC(=O)Nc3cccc(Cl)c3)nc21 [Compound 11, N-(3-Chlorophenyl)-2-((5-methyl-5H-[1,2,4]triazino[5,6-b]indol-3-yl)thio)acetamide] |  |  | inactive | activity at 10 µM (PAO1-L mCTX::PpqsA-lux): 34%
Cn1c2ccccc2c2nnc(SCC(=O)Nc3ccc(Oc4ccccc4)cc3)nc21 [Compound 24, 2-((5-Methyl-5H-[1,2,4]triazino[5,6-b]indol-3-yl)thio)-N-(4-phenoxyphenyl)acetamide] | 380 ± 60 nM | 350 ± 60 nM |  | fold higher activity in PAO1-L compared to 7 (PAO1-L mCTX::PpqsA-lux; PpqsA-lux bioreporter): ~2.5 fold

Reference: paper PMC7213079, “Hit Identification of New Potent PqsR Antagonists as Inhibitors of Quorum Sensing in Planktonic and Biofilm Grown Pseudomonas aeruginosa” (Frontiers in Chemistry, 2020)
